Key:
Format in all cases: cell-based
[1] = test system: retromer subunit VPS35 / HPV16 L1; test: Proximity ligation assay for HPV16 L1 and VPS35 in peptide-treated infected cells; conditions: 14 μM, MOI of 200, eight h.p.i.
Method: FIG. 19A depicts uninfected HeLa cells were incubated with 14 μM bP16/16 or bPDM/16 for three hours (“b” refers to peptides with an N-terminal biotin moiety). Cells were then fixed, permeabilized, and stained with AlexaFluor-streptavidin (green) and with anti-VPS35 (red). Overlapping signal is pseudocolored yellow. Nuclei were stained blue with DAPI. Mander's correlation coefficients for overlap between streptavidin and VPS35 staining are shown at right, with each spot representing an individual cell. Approximately 100 cells were analyzed for each condition. […] Images were processed by Fiji and quantitatively analyzed by BlobFinder software to measure total fluorescence intensity per cell in each sample. […]
(§1) For the proximity ligation assay, after an hour incubation with peptides, HeLa-S3 cells were infected with wild-type PSV at MOI of 200 or mutant PsV containing the same number of reporter plasmid genomes. […] The nuclei were stained by using Abcam fluorescence mounting medium with DAPI and images were acquired by a Leica SP5 inverted fluorescence microscope. […] The images were processed by Fiji and quantitatively analyzed by BlobFinder software to measure total fluorescence intensity in each sample. The average fluorescence intensity per cell in each sample was normalized to the control sample as indicated in each experiment. […]

[2] = test system: HPV16 PsV containing GFP11-tagged L2; test: Split GFP assay with peptide, HaCaT/GFP1-10NES cells; conditions: 30 μM, MOI of 2000, three h.p.i.
Method: FIG. 26A depicts clonal HaCaT/GFP1-10NES cells expressing cytosolic GFP1-10 infected at MOI of 2000 with untagged HPV16 or with HPV16 PsV containing GFP11-tagged L2 in the absence or presence of 30 μM P16/16. Three h.p.i., cells were stained with Hoescht 33342 to visualize nuclei (blue) and examined by confocal microscopy for GFP fluorescence. FIG. 26B the corrected total cellular fluorescence (CTCF) of each cell was calculated and plotted in arbitrary units from three independent experiments. n.s., not significant. FIG. 26C depicts HaCaT/GFP-10NES cells infected as described in FIG. 26A with wild-type HPV16 PsV in the presence of 30 μM P16/16 or in its absence for three hours, followed by removal of PsV and incubation with medium containing peptide for an additional 48 hours. Cells were assessed by flow cytometry to determine reporter protein expression. Infectivity was normalized with that in the absence of peptide. **, p<0.01.
To determine if the cytoplasmic protrusion of L2 of PsV is inhibited by peptides, the split GFP assay was performed. 3×104 clonal HaCaT/GFP1-10NES expressing GFP1-10NES in the cytoplasm were seeded in eight-chambered glass slides and incubated with peptides for an hour prior to infection at MOI of ˜2000 with HPV16 PsV containing wild-type L2 or L2 containing inserted GFP11. […]

SV40 = SV40 infection of HeLa-S3 cells, flow cytometry for large T antigen; conditions: 14 μM, MOI of ~1, 48 h.p.i.
Method: HeLa-S3 cells were treated with 14 μM P16/16 peptide or vehicle for one hour then infected with SV40 at MOI of ˜1. Forty-eight h.p.i., cells were washed, fixed, and permeabilized with cold methanol for 30 min. Cells were stained for intracellular SV40 large T antigen with fluorophore-conjugated monoclonal antibody PAb101, followed by flow cytometry. The histograms show number of cells and […] fluorescence in the absence or presence of peptide. Traces correspond to mock-infected cells (Line C), mock-infected cells in the presence of peptides (Line D), SV40-infected cells (Line A), and SV40-infected cells in the presence of peptides (Line B).
For studies of SV40 infection, 7.5×105 HeLa-S3 in 6-well plates were incubated with peptides prior to infection. Cells were infected with a crude preparation of SV40 at MOI of ˜1 and fixed with 4% paraformaldehyde at 48 h.p.i. Samples were stained with FITC-conjugated anti-large T antigen antibody (Pab101) (Santa Cruz, pSC147 FITC), followed by flow cytometry to determine the mean fluorescent intensity of T antigen staining.

EEA1 / HPV16 L1 = test: Proximity ligation assay for L1 and EEA1 in peptide-treated infected cells; conditions: 14 μM
Method: HeLa-S3 cells grown on glass coverslips for 16 hours were incubated for one hour with or without 14 μM P16/16, followed by mock-infection or infection with HPV16 PSV at MOI of 200. 8 and 16 h.p.i., cells were processed for PLA with anti-L1 antibody and an antibody recognizing EEA1 (FIG. 20A) or TGN46 (FIG. 20B). PLA was performed as in FIG. 19B. The PLA signal for EEA1/L1 was normalized to that of cells infected with HPV16 PsV in the absence of peptide at 8 h.p.i., while the TGN46/L1 signal was normalized to untreated cells at 16 h.p.i.
as §1, with “genomes. Infected cells were fixed at 8 or 16 h.p.i., permeabilized, and incubated with 1:100 dilutions of anti-L1 antibody and an antibody recognizing EEA1, TGN46, or VPS35.” for “genomes.”

Compound: CC[C@H](C)[C@H](NC(=O)[C@@H](NC(=O)[C@H](Cc1ccc(O)cc1)NC(=O)[C@H](CCC(N)=O)NC(=O)[C@@H]1CCCN1C(=O)[C@H](CO)NC(=O)[C@@H](N)CS)[C@@H](C)O)C(=O)N[C@H](C(=O)N[C@@H](C)C(=O)N[C@@H](CC(=O)O)C(=O)N[C@@H](C)C(=O)NCC(=O)N[C@@H](CC(=O)O)C(=O)N[C@@H](Cc1ccccc1)C(=O)N[C@@H](Cc1ccc(O)cc1)C(=O)N[C@@H](CC(C)C)C(=O)N[C@@H](Cc1c[nH]cn1)C(=O)N1CCC[C@H]1C(=O)N[C@@H](CO)C(=O)N[C@@H](Cc1ccc(O)cc1)C(=O)N[C@@H](Cc1ccc(O)cc1)C(=O)N[C@@H](CCSC)C(=O)N[C@@H](CC(C)C)C(=O)N[C@@H](CCCNC(=N)N)C(=O)N[C@@H](CCCCN)C(=O)N[C@@H](CCCNC(=N)N)C(=O)N[C@@H](CCCNC(=N)N)C(=O)N[C@@H](CCCCN)C(=O)N[C@@H](CCCNC(=N)N)C(=O)O)[C@@H](C)CC [P16/16]
- interaction of retromer with HPV (VPS35/L1 PLA) [1]: inhibited the interaction of retromer with HPV
- protrusion of L2 C terminus into the cytoplasm (reconstituted GFP) [2]: did not inhibit protrusion of the C terminus of the L2 protein into the cytoplasm
- inhibition of SV40 infection (SV40): did not inhibit
- EEA1/L1 PLA at 8 h.p.i. (EEA1 / HPV16 L1; MOI of 200, 8 h.p.i.): arrival of HPV at the endosome regardless of the presence of the peptide
- EEA1/L1 PLA at 16 h.p.i. (EEA1 / HPV16 L1; MOI of 200, 16 h.p.i.): striking accumulation of the virus in the endosome
